Measured values reported in patent US20110305703A1, “ISOLATED VEGF-C AND VEGF-D PEPTIDES AND USES THEREOF” (Vegenics Pty Limited, priority 2008, published 2011).
Primed or numbered codes have the meaning given here. No end group written: not given here. *: point of attachment. Biotin = O=C1N[C@H]2[C@H](CS[C@H]2CCCCC(=O)*)N1; Biotin′ = not defined here

Each substance was assayed on VEGF-D neutralizing monoclonal antibody mAb 4A5 (VDnmAb) (assay: ELISA of biotinylated synthetic peptides on streptavidin plates for VDnmAb binding). Conditions: 1st peptide library; 10 pmol peptide; VDnmAb 2 μg/ml; signal more than two-fold greater than background considered positive.
Excerpt: Peptides. A series of synthetic 15-mer peptides (peptides 1 to 35, SEQ ID NOs: 4 to 38 in FIG. 4B, which overlap each other by 12 amino acids) were synthesized (Mimotopes Pty Ltd, Melbourne, Australia). The peptides encompassed the VHD of human VEGF-D (SEQ ID NO: 3, FIG. 4A). Peptide 36 (SEQ ID NO: 39) represented an artificial sequence including a FLAG tag as a positive control for a commercial anti-FLAG mAb (M2; Sigma) that was used as control for non-specific binding to peptides 1 to 35 (SEQ ID NOs: 4 to 38). Biotin was included at the N-terminal of each peptide during synthesis, except that peptide 1 (SEQ ID NO: 4, representing the N-terminal of the VHD) has biotin at the C-terminal. The four-amino acid linker “SGSG” was introduced between the N-terminal of each peptide sequence and biotin to provide more flexibility to peptides after immobilization on streptavidin plates, except peptide 1 (SEQ ID NO: 4) that included the C-terminal linker “GSG”.
ELISA. Reacti-Bind streptavidin high-binding-capacity coated plates (Pierce) were coated with 10 pmol of each peptide in PBS, blocked with 5% milk in PBS-0.1% Tween 20, and incubated with 100 μl of VEGF-D neutralizing monoclonal antibody mAb 4A5 (referred to herein as VDnmAb) or M2 at 2 μg/ml for 1 h at room temperature. Bound mAb was detected with goat anti-mouse IgG coupled with HRP. ABTS was used as the substrate, and the absorbance was read at 405 nm in a multiwell plate reader.
In this 2nd peptide library, biotin was included at the N-terminal of each peptide, and the four-amino acid linker “SGSG” was introduced between each peptide sequence and the biotin residue to provide more flexibility to peptides after immobilization on streptavidin plates. ELISA-based analysis of the 2nd peptide library was carried out as for the 1st peptide library.
Peptide 67 (SEQ ID NO: 141, the same as peptide 36, SEQ ID NO: 39 from the 1st library) and peptide 68 (SEQ ID NO: 142), both containing the FLAG tag, were used as controls. In this 3rd peptide library, biotin was included at the N-terminal of each peptide except peptides 6, 12 and 14 (SEQ ID NOs: 80, 86 and 88) which have C-terminal biotin residues. To provide more flexibility to peptides after immobilization on streptavidin plates, an amino acid linker was introduced between biotin residues and the peptide sequence: “SGSG” for N-terminal biotin; “SGS” for C-terminal biotin. ELISA-based analysis of the 3rd peptide library was carried out as for the 1st peptide library, described in Example 1.

Row | Substance | VDnmAb binding to peptide (ELISA signal, absorbance at 405 nm)
1 | FRCGGCCNEESLICM (Biotin-SGSGFRCGGCCNEESLICM; cysteine pairing not given here) [peptide 18 (SEQ ID NO: 21), residues 140 to 154 of human VEGF-D, N-terminal biotin and SGSG linker] | positive
2 | VNVFRCGGCCNEESL (Biotin-SGSGVNVFRCGGCCNEESL; cysteine pairing not given here) [peptide 17 (SEQ ID NO: 20), residues 137 to 151 of human VEGF-D, N-terminal biotin and SGSG linker] | the strongest
3 | peptide 16 (SEQ ID NO: 19): 1st library 15-mer which lacks the three C-terminal residues of peptide 17, SEQ ID NO: 20 (SGSGPPCVNVFRCGGCCNE) | does not bind VDnmAb

Same assay, conditions: 2nd peptide library; 10 pmol peptide; VDnmAb 2 μg/ml; signal more than two-fold greater than background considered positive

Row | Substance | VDnmAb binding to peptide (ELISA signal, absorbance at 405 nm)
4 | 30 (SEQ ID NO: 69): from mouse VEGF-D, homologous to Peptide 31 (SEQ ID NO: 70): serine 150 to glycine, leucine 151 to valine (Biotin-SGSGVNVFRCGGCCNEEGV; cysteine pairing not given here) | complete loss of VDnmAb binding
5 | FRCGGCCNEESL (Biotin-SGSGFRCGGCCNEESL; cysteine pairing not given here) [peptide 15 (SEQ ID NO: 54), residues 140 to 151 of human VEGF-D, 2nd library, N-terminal biotin and SGSG linker] | positive
6 | NVFRCGGCCNEESL (Biotin-SGSGNVFRCGGCCNEESL; cysteine pairing not given here) [peptide 13 (SEQ ID NO: 52), residues 138 to 151 of human VEGF-D, N-terminal biotin and SGSG linker] | positive
7 | VFRCGGCCNEESL (Biotin-SGSGVFRCGGCCNEESL; cysteine pairing not given here) [peptide 14 (SEQ ID NO: 53), residues 139 to 151 of human VEGF-D, N-terminal biotin and SGSG linker] | the strongest
8 | VNVFRCGGCCNEESL (Biotin-SGSGVNVFRCGGCCNEESL; cysteine pairing not given here) [peptide 17 (SEQ ID NO: 20), residues 137 to 151 of human VEGF-D, N-terminal biotin and SGSG linker] | bound to VDnmAb
9 | VPLMRCGGCCNDEGL (Biotin-SGSGVPLMRCGGCCNDEGL; not fully specified; cysteine pairing not given here) [peptide 33 (SEQ ID NO: 72), residues 78 to 92 of VEGF-A, biotin and linker] | did not bind the antibody
10 | VSLLRCTGCCGDENL (Biotin-SGSGVSLLRCTGCCGDENL; not fully specified; cysteine pairing not given here) [peptide 35 (SEQ ID NO: 74), residues 78 to 92 of PlGF, biotin and linker] | did not bind the antibody
11 | VSVYRCGGCCNSEGL (Biotin-SGSGVSVYRCGGCCNSEGL; not fully specified; cysteine pairing not given here) [peptide 32 (SEQ ID NO: 71), residues 157 to 171 of human VEGF-C, biotin and linker] | did not bind the antibody
12 | VTVQRCGGCCPDDGL (Biotin-SGSGVTVQRCGGCCPDDGL; not fully specified; cysteine pairing not given here) [peptide 34 (SEQ ID NO: 73), residues 73 to 87 of VEGF-B, biotin and linker] | did not bind the antibody
13 | peptide 18 (SEQ ID NO: 57): peptide 14 (SEQ ID NO: 53) with deletion of the leucine residue corresponding to position 151 (SGSGVFRCGGCCNEES) | complete loss of VDnmAb binding
14 | peptide 22 (SEQ ID NO: 61): 2nd library: single mutation of cysteine in the binding region, C146S (SGSGVNVFRCGGCSNEESL) | very minor or no effect on VDnmAb binding

Same assay, conditions: 3rd peptide library; 10 pmol peptide; VDnmAb 2 μg/ml; signal more than two-fold over background considered positive

Row | Substance | VDnmAb binding to peptide (ELISA signal, absorbance at 405 nm)
15 | CGGCCNEESL (SGSGCGGCCNEESL) [peptide 15 (SEQ ID NO: 89)] | positive
16 | FRCGGCCNEESL [peptide 12 (SEQ ID NO: 86)] (FRCGGCCNEESLSGS-{Biotin′}; cysteine pairing not given here) | decreases in VDnmAb binding
17 | GGCCNEESL (SGSGGGCCNEESL) [peptide 16 (SEQ ID NO: 90)] | positive
18 | RCGGCCNEESL [peptide 13 (SEQ ID NO: 87)] (Biotin-SGSGRCGGCCNEESL; cysteine pairing not given here) | the strongest
19 | RCGGCCNEESL [peptide 14 (SEQ ID NO: 88)] (RCGGCCNEESLSGS-{Biotin′}; cysteine pairing not given here) | decreases in VDnmAb binding
20 | VFRCGGCCNEESL (VFRCGGCCNEESLSGS-{Biotin′}; cysteine pairing not given here) [peptide 6 (SEQ ID NO: 80)] | decreases in VDnmAb binding
21 | peptide 1 (SEQ ID NO: 75): 3rd library: variant of VFRCGGCCNEESL with mutation S150C (SGSGVFRCGGCCNEECL) | loss, even complete loss, of VDnmAb binding
22 | peptide 2 (SEQ ID NO: 76): 3rd library: variant of VFRCGGCCNEESL with mutation S150A (SGSGVFRCGGCCNEEAL) | reduced VDnmAb binding somewhat
23 | peptide 3 (SEQ ID NO: 77): 3rd library: variant of VFRCGGCCNEESL with mutation S150T (SGSGVFRCGGCCNEETL) | loss, even complete loss, of VDnmAb binding
24 | peptide 4 (SEQ ID NO: 78): 3rd library: variant with deletion of one of N147, E148, E149, S150 (SGSGVFRCGGCCNEEL) | loss of VDnmAb binding
25 | peptide 7 (SEQ ID NO: 81): 3rd library: mutation of residue 151 to valine (SGSGVFRCGGCCNEESV) | decreased VDnmAb binding
26 | peptide 8 (SEQ ID NO: 82): 3rd library: mutation of residue 151 to alanine (SGSGVFRCGGCCNEESA) | decreased VDnmAb binding
27 | peptide 9 (SEQ ID NO: 83): 3rd library: mutation V139L (SGSGLFRCGGCCNEESL) | little or no effect on VDnmAb binding
28 | peptide 10 (SEQ ID NO: 84): 3rd library: mutation V139A (SGSGAFRCGGCCNEESL) | little or no effect on VDnmAb binding
29 | peptide 17 (SEQ ID NO: 91): 3rd library: mutation F140Y (SGSGVYRCGGCCNEESL) | little or no effect on VDnmAb binding
30 | peptide 18 (SEQ ID NO: 92): 3rd library: mutation F140A (SGSGVARCGGCCNEESL) | little or no effect on VDnmAb binding
31 | peptide 19 (SEQ ID NO: 93): 3rd library: deletion of F140 (SGSGVRCGGCCNEESL) | little or no effect on VDnmAb binding
32 | peptide 20 (SEQ ID NO: 94): 3rd library: mutation R141K (SGSGVFKCGGCCNEESL) | more pronounced effect
33 | peptide 21 (SEQ ID NO: 95): 3rd library: mutation R141A (SGSGVFACGGCCNEESL) | little or no effect on VDnmAb binding

Same assay, conditions: 3rd peptide library; 10 pmol peptide; VDnmAb 2 μg/ml; signal more than two-fold over background considered positive; listed as peptide 5 (SEQ ID NO: 79)

Row | Substance | VDnmAb binding to peptide (ELISA signal, absorbance at 405 nm)
34 | VFRCGGCCNEESL (Biotin-SGSGVFRCGGCCNEESL; cysteine pairing not given here) [peptide 14 (SEQ ID NO: 53), residues 139 to 151 of human VEGF-D, N-terminal biotin and SGSG linker] | bound to VDnmAb
